For three compounds, inhibition results are on record in paper PMC8231556, “Inhibiting Endothelial Cell Function in Normal and Tumor Angiogenesis Using BMP Type I Receptor Macrocyclic Kinase Inhibitors” (Cancers, 2021).

Holding throughout (test): radiometric kinase profiling (33 PanQinase)
Common to all, as to assay type: biochemical

For one experiment, the target named is T1, DYRK1A (Homo sapiens, UniProt Q13627).
T1 construct: purchased Proqinase, Germany
The note with it: read-out: Inhibitory effect (%) DYRK1A. In short, it runs like this: (§1)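 Enzyme/substrate mixes were incubated with [γ-33P]-ATP and compound (added as a 0.1 μM solution in 10% DMSO) at 30 °C for 60 min, then stopped with H3PO4 and washed with NaCl. 33P incorporation was scintillation-counted, and residual activity (%) was normalized to untreated control and background.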

The next experiment has as its target T2, DCLK2 (Homo sapiens, UniProt Q8N568).
T2 construct: purchased Proqinase, Germany
T2 sequence (Q8N568 1-766): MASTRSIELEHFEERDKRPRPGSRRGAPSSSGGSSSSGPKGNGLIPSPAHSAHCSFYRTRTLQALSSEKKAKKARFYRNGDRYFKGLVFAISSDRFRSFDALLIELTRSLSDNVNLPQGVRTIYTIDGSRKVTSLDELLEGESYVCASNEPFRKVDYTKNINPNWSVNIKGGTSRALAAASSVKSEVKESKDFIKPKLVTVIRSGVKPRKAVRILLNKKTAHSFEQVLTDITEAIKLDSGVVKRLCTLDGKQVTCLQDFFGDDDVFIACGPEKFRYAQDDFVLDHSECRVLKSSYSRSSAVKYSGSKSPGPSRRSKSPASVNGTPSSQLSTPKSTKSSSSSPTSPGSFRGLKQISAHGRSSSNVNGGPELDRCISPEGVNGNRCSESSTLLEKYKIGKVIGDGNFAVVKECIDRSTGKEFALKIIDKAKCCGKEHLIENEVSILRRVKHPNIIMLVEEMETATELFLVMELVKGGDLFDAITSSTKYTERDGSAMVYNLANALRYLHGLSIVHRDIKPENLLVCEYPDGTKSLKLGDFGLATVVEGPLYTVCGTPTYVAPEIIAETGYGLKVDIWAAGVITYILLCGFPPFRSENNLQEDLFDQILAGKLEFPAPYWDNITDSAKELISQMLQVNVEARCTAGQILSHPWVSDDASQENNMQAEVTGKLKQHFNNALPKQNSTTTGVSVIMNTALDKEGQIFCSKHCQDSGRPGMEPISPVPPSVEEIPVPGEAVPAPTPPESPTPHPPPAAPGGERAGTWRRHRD
The note with it: read-out: Inhibitory effect (%) DCLK2. In short, it runs like this:
as §1

A further experiment has as its target T3, JAK1 (Homo sapiens, UniProt P23458).
T3 construct: purchased ProQinase (33PanQinase Activity Assay)
The note with it: read-out: Inhibitory effect (%) JAK1. In short, it runs like this:
as §1

For a further experiment, the target named is T4, SGK3 (Homo sapiens, UniProt Q96BR1).
T4 construct: purchased ProQinase (33PanQinase Activity Assay)
T4 sequence (Q96BR1 1-496): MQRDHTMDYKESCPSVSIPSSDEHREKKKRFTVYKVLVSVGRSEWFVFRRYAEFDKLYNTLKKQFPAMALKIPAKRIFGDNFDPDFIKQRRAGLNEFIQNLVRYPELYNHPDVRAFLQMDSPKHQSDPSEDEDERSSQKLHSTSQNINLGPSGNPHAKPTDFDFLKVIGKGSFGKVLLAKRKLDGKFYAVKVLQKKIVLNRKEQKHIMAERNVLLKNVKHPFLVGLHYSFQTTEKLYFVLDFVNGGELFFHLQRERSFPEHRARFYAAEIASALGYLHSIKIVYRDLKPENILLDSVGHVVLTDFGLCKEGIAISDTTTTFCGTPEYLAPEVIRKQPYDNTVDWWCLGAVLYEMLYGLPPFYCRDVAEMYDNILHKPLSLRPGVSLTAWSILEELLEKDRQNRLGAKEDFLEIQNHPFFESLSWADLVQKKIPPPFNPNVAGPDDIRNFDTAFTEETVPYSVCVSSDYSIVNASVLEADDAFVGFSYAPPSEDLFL
The following applies: read-out: Inhibitory effect (%) SGK3. The gist of the method:
as §1

A further experiment deals with T5, CSNK1G2 (Homo sapiens, UniProt P78368).
T5 construct: purchased Proqinase, Germany
T5 sequence (P78368 whole entry): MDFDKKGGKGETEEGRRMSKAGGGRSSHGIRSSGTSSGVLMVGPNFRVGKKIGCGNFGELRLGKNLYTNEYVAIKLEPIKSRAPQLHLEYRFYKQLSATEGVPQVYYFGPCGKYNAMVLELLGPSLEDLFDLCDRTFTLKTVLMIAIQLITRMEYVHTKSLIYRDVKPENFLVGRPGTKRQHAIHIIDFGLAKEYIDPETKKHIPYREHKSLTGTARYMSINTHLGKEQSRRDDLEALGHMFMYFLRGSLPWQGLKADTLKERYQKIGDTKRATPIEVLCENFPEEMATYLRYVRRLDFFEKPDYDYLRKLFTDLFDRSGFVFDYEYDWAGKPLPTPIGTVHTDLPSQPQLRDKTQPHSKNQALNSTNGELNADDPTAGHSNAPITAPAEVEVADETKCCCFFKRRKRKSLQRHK
The following applies: read-out: Inhibitory effect (%) CSNK1G2. The gist of the method:
as §1

For a further experiment, the target named is T6, NUAK1 (Homo sapiens, UniProt O60285).
T6 construct: purchased ProQinase (33PanQinase Activity Assay)
T6 sequence (O60285 1-661): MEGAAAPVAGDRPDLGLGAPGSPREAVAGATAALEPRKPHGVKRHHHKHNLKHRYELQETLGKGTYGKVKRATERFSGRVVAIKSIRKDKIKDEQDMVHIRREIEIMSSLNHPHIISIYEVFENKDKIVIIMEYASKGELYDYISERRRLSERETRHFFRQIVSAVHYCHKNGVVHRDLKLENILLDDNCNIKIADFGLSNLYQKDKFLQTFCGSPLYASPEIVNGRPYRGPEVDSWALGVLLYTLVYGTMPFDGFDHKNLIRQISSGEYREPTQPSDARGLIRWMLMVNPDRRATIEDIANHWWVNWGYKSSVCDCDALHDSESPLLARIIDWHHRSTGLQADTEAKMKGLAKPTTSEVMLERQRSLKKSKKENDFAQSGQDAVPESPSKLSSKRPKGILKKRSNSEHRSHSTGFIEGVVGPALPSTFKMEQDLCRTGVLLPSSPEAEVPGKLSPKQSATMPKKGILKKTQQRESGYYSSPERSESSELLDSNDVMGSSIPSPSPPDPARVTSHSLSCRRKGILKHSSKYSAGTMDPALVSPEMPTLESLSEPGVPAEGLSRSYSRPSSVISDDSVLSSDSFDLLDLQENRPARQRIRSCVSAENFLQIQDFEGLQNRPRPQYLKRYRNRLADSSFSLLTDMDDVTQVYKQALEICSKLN
The note with it: read-out: Inhibitory effect (%) NUAK1. The gist of the method:
as §1

The target in another experiment is T7, EIF2AK1 (Homo sapiens, UniProt Q9BQI3).
T7 construct: purchased Proqinase, Germany
T7 sequence (Q9BQI3 whole entry): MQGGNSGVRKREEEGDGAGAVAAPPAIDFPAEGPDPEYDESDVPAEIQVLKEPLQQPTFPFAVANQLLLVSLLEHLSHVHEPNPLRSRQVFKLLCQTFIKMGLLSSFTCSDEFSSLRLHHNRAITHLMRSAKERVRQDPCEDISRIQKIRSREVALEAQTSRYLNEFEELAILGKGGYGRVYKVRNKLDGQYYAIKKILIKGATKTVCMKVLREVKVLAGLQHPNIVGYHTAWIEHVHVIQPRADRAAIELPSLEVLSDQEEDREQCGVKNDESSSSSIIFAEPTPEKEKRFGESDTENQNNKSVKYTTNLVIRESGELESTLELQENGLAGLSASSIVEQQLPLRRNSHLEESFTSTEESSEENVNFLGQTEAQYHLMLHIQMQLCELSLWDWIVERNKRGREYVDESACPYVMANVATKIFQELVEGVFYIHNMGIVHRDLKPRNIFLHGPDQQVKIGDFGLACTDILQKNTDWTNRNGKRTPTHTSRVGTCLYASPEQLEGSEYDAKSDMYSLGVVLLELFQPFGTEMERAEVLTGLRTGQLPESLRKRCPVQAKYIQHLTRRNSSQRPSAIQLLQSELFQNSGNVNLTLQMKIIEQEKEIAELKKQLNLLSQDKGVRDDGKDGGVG
The following applies: read-out: Inhibitory effect (%) EIF2AK1. The gist of the method: as §1

A further experiment has as its target T8, CDK1_cyclinA2 (Homo sapiens, UniProt P06493).
T8 construct: purchased Proqinase, Germany
The note with it: read-out: Inhibitory effect (%) CDK1_cyclinA2. The gist of the method:
as §1

T3 sequence (P23458 whole entry): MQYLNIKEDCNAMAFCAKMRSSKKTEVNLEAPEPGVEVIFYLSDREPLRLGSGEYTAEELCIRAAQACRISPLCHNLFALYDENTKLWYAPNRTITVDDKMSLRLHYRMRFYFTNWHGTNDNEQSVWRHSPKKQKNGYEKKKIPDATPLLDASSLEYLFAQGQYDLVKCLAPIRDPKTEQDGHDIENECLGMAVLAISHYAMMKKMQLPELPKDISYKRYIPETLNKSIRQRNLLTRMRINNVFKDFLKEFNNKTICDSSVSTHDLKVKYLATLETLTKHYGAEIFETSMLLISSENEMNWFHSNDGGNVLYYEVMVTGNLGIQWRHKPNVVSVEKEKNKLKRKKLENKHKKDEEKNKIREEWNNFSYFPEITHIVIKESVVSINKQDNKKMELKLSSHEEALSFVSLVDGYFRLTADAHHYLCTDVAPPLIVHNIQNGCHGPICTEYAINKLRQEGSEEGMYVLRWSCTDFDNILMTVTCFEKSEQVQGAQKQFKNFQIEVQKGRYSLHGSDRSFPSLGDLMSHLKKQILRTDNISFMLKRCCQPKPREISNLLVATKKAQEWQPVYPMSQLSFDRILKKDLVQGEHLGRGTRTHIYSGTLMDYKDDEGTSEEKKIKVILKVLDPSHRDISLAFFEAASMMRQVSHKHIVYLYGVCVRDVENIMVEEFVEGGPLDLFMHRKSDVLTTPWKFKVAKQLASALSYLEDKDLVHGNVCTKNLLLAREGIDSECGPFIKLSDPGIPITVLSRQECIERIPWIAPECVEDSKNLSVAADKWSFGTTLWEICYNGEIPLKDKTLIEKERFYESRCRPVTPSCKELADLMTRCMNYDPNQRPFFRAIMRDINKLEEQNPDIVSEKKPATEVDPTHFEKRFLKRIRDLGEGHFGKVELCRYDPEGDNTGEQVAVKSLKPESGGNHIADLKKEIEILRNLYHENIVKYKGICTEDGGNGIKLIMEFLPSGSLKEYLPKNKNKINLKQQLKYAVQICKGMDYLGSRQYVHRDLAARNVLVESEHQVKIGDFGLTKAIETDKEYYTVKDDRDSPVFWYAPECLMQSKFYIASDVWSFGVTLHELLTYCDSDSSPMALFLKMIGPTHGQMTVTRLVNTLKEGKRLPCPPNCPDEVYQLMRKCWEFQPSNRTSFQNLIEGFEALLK
T8 sequence (P06493 whole entry): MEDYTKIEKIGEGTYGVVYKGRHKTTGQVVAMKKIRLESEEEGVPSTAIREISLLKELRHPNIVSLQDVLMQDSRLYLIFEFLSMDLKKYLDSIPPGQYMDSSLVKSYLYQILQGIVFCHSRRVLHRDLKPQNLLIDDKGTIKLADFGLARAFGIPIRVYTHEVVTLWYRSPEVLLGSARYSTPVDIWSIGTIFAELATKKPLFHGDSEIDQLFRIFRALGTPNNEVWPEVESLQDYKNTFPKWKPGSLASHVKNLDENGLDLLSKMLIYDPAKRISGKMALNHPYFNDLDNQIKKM
T8 sequence (P20248 whole entry partner): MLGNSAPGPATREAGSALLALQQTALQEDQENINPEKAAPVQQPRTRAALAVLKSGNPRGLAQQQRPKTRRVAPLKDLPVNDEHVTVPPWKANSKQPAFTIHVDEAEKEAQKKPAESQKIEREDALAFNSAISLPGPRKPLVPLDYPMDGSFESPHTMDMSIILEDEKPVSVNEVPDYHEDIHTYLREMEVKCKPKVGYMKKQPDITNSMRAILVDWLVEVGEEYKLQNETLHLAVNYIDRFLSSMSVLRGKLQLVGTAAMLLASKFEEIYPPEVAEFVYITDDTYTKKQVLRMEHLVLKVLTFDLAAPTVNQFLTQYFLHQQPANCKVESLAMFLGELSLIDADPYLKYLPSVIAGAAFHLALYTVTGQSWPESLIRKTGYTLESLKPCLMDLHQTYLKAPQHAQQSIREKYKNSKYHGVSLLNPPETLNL

Take `c1ccc2c(-c3cnn4cc(-c5ccc(N6CCNCC6)cc5)cnc34)ccnc2c1` [LDN-193189, reference compound]: the inhibition at 0.1 µM on DYRK1A was -15.6%; on DCLK2, 9.12%; at JAK1, -10.9%; at SGK3 it was -26.9%; on CSNK1G2, -23.1%; on NUAK1 it was -20.2%. Also, the inhibition at 0.1 µM at EIF2AK1 is -16.3%; at CDK1_cyclinA2, -2.18%.

Take `CN1CCc2cccc(c2)Nc2nccc(n2)N2CCCc3cc(ccc32)C1` [OD16]: the inhibition at 0.1 µM is -6.26% at DYRK1A; -2.18% at DCLK2; 23.1% at JAK1; 2.44% at SGK3; -15.6% on CSNK1G2; 74.3% on NUAK1. In addition, the inhibition at 0.1 µM on EIF2AK1 was -7.88%; at CDK1_cyclinA2, -8.88%.

As to `CN1CCC(=O)NCCNc2ccn3ncc(c3n2)-c2cccc(c2)C1` [OD29], the inhibition at 0.1 µM on DYRK1A is -7.58%; at DCLK2 it was -15.9%; on JAK1 it was -3.74%; at SGK3, -21.9%; at CSNK1G2, -0.5%; at NUAK1, 5.32%. Besides, the inhibition at 0.1 µM on EIF2AK1 is -0.05%; on CDK1_cyclinA2, 23.7%.
